Reference: patent US8906829B2, “Synergistic algicidal compositions including hydrazone derivatives and copper” (Dow AgroSciences LLC, priority 2010, dated 2014)

How the values were obtained:
C. reinhardtii CC-1928 = assay: Effect of copper on activity of hydrazones: in vitro growth inhibition of C. reinhardtii in TAP Cu minus / TAP Cu plus medium (Example 10); type: cell-based, Chlamydomonas reinhardtii; settings: test compound 1 μg/mL, 48 h; for inhibition of growth at 1 µg/mL: Chlamydomonas reinhardtii, TAP Cu minus medium, read-out: % Inhn. Minus Copper Observed; for % Inhn. Plus Copper Observed: TAP Cu plus medium (CuCl2)
Procedure: In vitro toxicity assays against C. reinhardtii CC-1928 (wild type mt+137c green in dark subclone) obtained from the Chlamydomonas Resource Center at Duke University were conducted using TAP liquid growth medium described by Gorman and Levine Proc. Natl. Acad. Sci. USA 1965, 54, 1665-1669 except that CuSO4.5H2O, normally included as a component of Hutner's trace element stock solution (Hutner et al. Proc. Am. Philos. Soc. 1950, 94, 152-170), was omitted. The TAP medium lacking Cu (TAP Cu minus) was prepared by adding 400 mg NH4Cl, 10 mL of 100× Tris-Acetate (242 g Tris-base and 100 mL glacial acetic acid in 1000 mL milli Q water), and 8.3 mL of 120.5× phosphate buffer (14.34 g K2HPO4 and 7.26 g KH2PO4 in 1000 mL milli Q water) to milli Q water to make a total volume of 1 liter. The medium was treated with 0.5 g Chelex 100 resin (Bio-Rad Analytical grade, 50-100 mesh, sodium form, cat#142-2822) by stirring at room temperature for 1 hour. 900 mL were decanted and 45.9 mg of CaCl2.2H2O, 90 mg of MgSO4.7H2O and 0.9 mL Hutner's trace elements lacking CuSO4.5H2O were added and the solution was filter-sterilized. Medium containing copper (TAP Cu plus) was prepared by adding CuCl2.2H2O to the TAP Cu minus medium at 20 μM. Test compounds were dissolved in dimethylsulfoxide (DMSO) at 2 mg/mL then dilutions in TAP Cu minus and TAP Cu plus media were prepared in sterilized microcentrifuge tubes at 2 μg/mL. 100 μL aliquots of diluted compound were dispensed into flat-bottomed 96-well microtiter plates. C. reinhardtii was maintained under 12 h of light on TAP agar plates at 18° C. A loopful of cells was added to 50 mL of TAP Cu minus medium and the culture incubated with shaking at 200 rpm at 27° C. for 24 h. The culture (10 to 20 mL aliquot) was centrifuged in a bench centrifuge at 2000 rpm for 2 min. The resulting cell pellet was resuspended in 5 mL sterile milli Q water (which had been treated with Chelex 100 resin using 0.5 g resin per liter of water by stirring at room temperature for 1 h), and recentrifuged. The cells were resuspended in TAP Cu minus medium, and the suspension adjusted to 2×10^5 spores per mL. Microtiter plates containing compounds as described above were inoculated with 100 μL of this cell suspension and the plates incubated at 27° C. for 48 h before assessing algal growth by measuring light scattering in a NepheloStar plate-reader. Growth inhibition was determined by comparing growth in the presence of test compound with growth in control wells lacking test compound. Results for growth inhibition by test compounds at 1 μg/mL in TAP Cu plus medium (% Inhn Plus Copper Observed) were compared with predicted values (% Inhn Plus Copper Predicted) that were calculated using the formula set forth by S. R. Colby in Weeds 1967, 15, 20-22 based on results obtained for the same compounds in TAP Cu minus medium (% Inhn Minus Copper Observed). […] Results illustrate that hydrazones and copper produce a synergistic algicidal effect towards C. reinhardtii.

[1] = tested on: Synechocystis sp. strain 6803; assay: Effect of copper on activity of hydrazones: in vitro growth inhibition of Synechocystis in BG-11 Cu minus / Cu plus medium (Example 11); type: cell-based; settings: 72 h; for % Inhn. Plus Copper Observed: BG-11 Cu plus medium
Procedure: In vitro toxicity assays against the cyanobacterium (blue-green alga) Synechocystis sp. strain 6803 were conducted using BG-11 medium except that copper micronutrient, normally included as CuSO4.5H2O, was omitted. The medium, termed BG-11 Cu minus, was prepared by dissolving 1.5 g NaNO3, 40 mg K2HPO4, 6 mg citric acid, 1 mg Na2EDTA and 20 mg Na2CO3 in 1 liter of milli Q water and treating the solution with 0.5 g Chelex 100 resin (Bio-Rad Analytical grade, 50-100 mesh, sodium form, cat#142-2822) by stifling at room temperature for 1 h. 900 mL were decanted and 67.5 mg MgSO4.7H2O, 32.4 mg […], 5.4 mg ferric ammonium citrate and 0.9 mL trace metal mix A5 without copper (2.86 g H3BO3, 1.81 g MnCl2.4H2O, 222 mg ZnSO4.7H2O, 390 mg Na2MoO4.2H2O and Co(NO3)2.6H2O in 1 L Milli Q water) was added. The pH was adjusted to 7.1 and the medium was filter-sterilized. Medium containing copper (BG-11 Cu plus) was prepared by adding CuCl2.2H2O to the BG-11 Cu minus medium at 0.2 μM. Test compounds were dissolved in dimethylsulfoxide (DMSO) at 2 mg/mL then appropriate dilutions in BG-11 Cu minus and BG-11 Cu plus media were prepared in sterilized microcentrifuge tubes. 100 μL aliquots were dispensed into flat-bottomed 96-well microtiter plates. Synechocystis was maintained under 24 h of light on BG-11 agar plates at 27° C. A loopful of cells was added to 50 mL of BG-11 Cu minus growth medium and the culture was incubated with shaking at 200 rpm at 27° C. for 24 h. The culture (10 to 20 mL aliquot) was centrifuged in a bench centrifuge at 2400 rpm for 2 min. The resulting cell pellet was resuspended in 5 mL sterile milli Q water (which had been treated with Chelex 100 resin using 0.5 g resin per liter of water by stirring at room temperature for 1 h), and recentrifuged. The cells were resuspended in BG-11 Cu minus medium, and the suspension adjusted to 4×10^5 spores per mL. Microtiter plates containing compounds as described above were inoculated with 100 μL of this cell suspension and the plates incubated at 27° C. for 72 h before assessing algal growth by measuring light scattering in a NepheloStar plate reader. Growth inhibition was determined by comparing growth in the presence of test compound with growth in control wells lacking test compound. Results for growth inhibition by test compounds in BG-11 Cu plus medium (% Inhn Plus Copper Observed) were compared with predicted values (% Inhn Plus Copper Predicted) that were calculated using the formula set forth by S. R. Colby in Weeds 1967, 15, 20-22 based on-results obtained for the same compounds in BG-11 Cu minus medium (% Inhn Minus Copper Observed) and the inhibition attributed to copper chloride alone, as determined by comparing growth in copper-minus and copper-plus media without any test compound across experiments. Results illustrate that hydrazones and copper produce a synergistic algicidal effect towards Synechocystis.

[2] = Synechocystis, Test Concn. 0.05 μg/mL, BG-11 Cu minus medium, read-out: % Inhn. Minus Copper Observed
[3] = Synechocystis, Test Concn. 0.0125 μg/mL, BG-11 Cu minus medium, read-out: % Inhn. Minus Copper Observed
[4] = Synechocystis, Test Concn. 0.00625 μg/mL, BG-11 Cu minus medium, read-out: % Inhn. Minus Copper Observed

| SMILES | melting point [°C] | inhibition of growth at 1 µg/mL (C. reinhardtii CC-1928) [%] | % Inhn. Plus Copper Observed (C. reinhardtii CC-1928) [%] | inhibition of growth at 0.05 µg/mL [1, 2] [%] | % Inhn. Plus Copper Observed ([1]; Test Concn. 0.05 μg/mL) [%] | inhibition of growth at 0.025 µg/mL ([1]; Synechocystis, Test Concn. 0.025 μg/mL, BG-11 Cu minus medium, read-out: % Inhn. Minus Copper Observed) [%] | % Inhn. Plus Copper Observed ([1]; Test Concn. 0.025 μg/mL) [%] | inhibition of growth at 0.0125 µg/mL [1, 3] [%] | % Inhn. Plus Copper Observed ([1]; Test Concn. 0.0125 μg/mL) [%] | inhibition of growth at 0.00625 µg/mL [1, 4] [%] | % Inhn. Plus Copper Observed ([1]; Test Concn. 0.00625 μg/mL) [%] |
| --- | --- | --- | --- | --- | --- | --- | --- | --- | --- | --- | --- |
| COc1cc(Br)cc(/C=N/NC(=O)c2cccc(Br)c2)c1O [Compound 19] | – | 12 | 52 | -18 | 43 | – | – | – | – | – | – |
| O=C(N/N=C/c1cc(Cl)cc(Cl)c1O)c1cccc(Cl)c1 [Compound 8] | – | 15 | 92 | 62 | 92 | – | – | – | – | – | – |
| O=C(N/N=C/c1cc(C(F)(F)F)cc(Cl)c1O)c1ccccc1 [Compound 24] | 216 to 222 | -2 | 90 | 45 | 93 | – | – | – | – | – | – |
| O=C(N/N=C/c1cc(Cl)ccc1O)c1ccccc1 [Compound 3] | – | 25 | 62 | -17 | 96 | – | – | – | – | – | – |
| Cc1ccccc1C(=O)N/N=C/c1cc(Cl)cc(Br)c1O [Compound 16] | – | -3 | 95 | -5 | 94 | – | – | – | – | – | – |
| O=C(N/N=C/c1cc(Cl)cc(Cl)c1O)c1ccc(Br)cc1 [Compound 9] | – | 7 | 90 | – | – | – | – | – | – | 15 | 74 |
| O=C(N/N=C/c1cc(Cl)cc(Cl)c1O)c1ccc(F)cc1 [Compound 4] | – | 12 | 92 | -14 | 96 | – | – | – | – | – | – |
| O=C(N/N=C/c1cc(Cl)cc(Br)c1O)c1cccc(Br)c1 [Compound 17] | – | 32 | 83 | – | – | – | – | – | – | 59 | 72 |
| COc1cc(Br)cc(/C=N/NC(=O)c2ccc(C)cc2)c1O [Compound 20] | – | -6 | 94 | 9 | 86 | – | – | – | – | – | – |
| O=C(N/N=C/c1c(O)cccc1Cl)c1ccc([N+](=O)[O-])cc1 [Compound 49] | > 300 | 33 | 93 | – | – | – | – | – | – | – | – |
| O=C(N/N=C/c1cc(Br)cc(Br)c1O)c1ccccc1 [Compound 11] | – | 31 | 96 | 50 | 97 | – | – | – | – | – | – |
| O=C(N/N=C/c1cc(C(F)(F)F)ccc1O)c1ccccc1O [Compound 71] | 277 to 281 | – | – | – | – | – | – | – | – | – | – |

Further lines, with some results ahead:

| melting point [°C] | SMILES | inhibition of growth at 1 µg/mL (C. reinhardtii CC-1928) [%] | % Inhn. Plus Copper Observed (C. reinhardtii CC-1928) [%] | inhibition of growth at 0.05 µg/mL [1, 2] [%] | % Inhn. Plus Copper Observed ([1]; Test Concn. 0.05 μg/mL) [%] | inhibition of growth at 0.025 µg/mL ([1]; Synechocystis, Test Concn. 0.025 μg/mL, BG-11 Cu minus medium, read-out: % Inhn. Minus Copper Observed) [%] | % Inhn. Plus Copper Observed ([1]; Test Concn. 0.025 μg/mL) [%] | inhibition of growth at 0.0125 µg/mL [1, 3] [%] | % Inhn. Plus Copper Observed ([1]; Test Concn. 0.0125 μg/mL) [%] | inhibition of growth at 0.00625 µg/mL [1, 4] [%] | % Inhn. Plus Copper Observed ([1]; Test Concn. 0.00625 μg/mL) [%] |
| --- | --- | --- | --- | --- | --- | --- | --- | --- | --- | --- | --- |
| 276 to 280 | C/C(=N\NC(=O)c1ccc(Cl)cc1)c1cc(F)cc(F)c1O [Compound 62] | 0 | 95 | 60 | 95 | – | – | – | – | – | – |
| 245 | C/C(=N\NC(=O)c1c(C)cccc1O)c1cc(Cl)cc(Cl)c1O [Compound 58] | 3 | 93 | – | – | 46 | 64 | – | – | – | – |
| 195 to 200 | C/C(=N\NC(=O)c1ccc(C)cc1)c1cccc(Cl)c1O [Compound 59] | -6 | 92 | 1 | 93 | – | – | – | – | – | – |
| 176 to 180 | O=C(N/N=C/c1cccc(C(F)(F)F)c1O)c1cccc(F)c1 [Compound 34] | 8 | 97 | 34 | 91 | – | – | – | – | – | – |
| 244 to 252 | C/C(=N\NC(=O)c1ccc(Br)cc1)c1cccc([N+](=O)[O-])c1O [Compound 60] | -50 | 89 | – | – | – | – | 33 | 50 | – | – |
| 219 to 222 | O=C(N/N=C/c1ccc(Cl)c(Cl)c1O)c1cccc(Cl)c1 [Compound 40] | 22 | 96 | – | – | – | – | – | – | 4 | 64 |
| 266 to 268 | O=C(N/N=C/c1cccc(Cl)c1O)c1ccccc1O [Compound 54] | -8 | 75 | 37 | 88 | – | – | – | – | – | – |
| 241 to 251 | C/C(=N\NC(=O)c1ccc(Cl)cc1)c1cccc([N+](=O)[O-])c1O [Compound 23] | -37 | 89 | – | – | – | – | 27 | 92 | – | – |
| 273 to 277 | O=C(N/N=C/c1c(O)cccc1Cl)c1ccc(Cl)cc1 [Compound 70, 4-chlorobenzoic acid [1-(2-chloro-6-hydroxyphenyl)-methylidene]-hydrazide] | – | – | – | – | – | – | – | – | – | – |
| 257 to 259 | O=C(N/N=C/c1c(O)cccc1Cl)c1cccc(F)c1 [Compound 69] | – | – | – | – | – | – | – | – | – | – |
